The record followed here is US20090259275A1, “METHODS OF TREATING BRAIN DAMAGES” (priority 2008, published 2009).

In test [1] the test system is NSPC migration toward cathode. The experiment in a line: EF-directed NSPC migration in LGE explant cultures. The test is classed as cell-based, rat. Conditions: DAPV 10 μM, EF 30 mV/mm for 10 hours. The protocol: Explants (100-300 μm in diameter) were selected for observation. For the electric field (EF) application, agar-salt bridges were used to connect silver/silver chloride electrodes in beakers containing Steinberg's solution to pools of excess culture medium at either side of the chamber. The electric field strengths were measured directly at the beginning and end of the observation period. For time-lapse observation, HEPES acid (25 mM) was added to the culture medium to adjust pH to 7.4. Time-lapse imaging was performed with an inverted microscope (Zeiss Axiovert 200M, obtained from Zeiss, Oberkochen, Germany) that was used to record digitally the migration of NSPCs for 3 hours. […] At the end of exposure period explants were fixed in 4% paraformaldehyde and then digitally photographed for quantification. […] To quantify velocity and directedness of cell motion, the cell centroid was calculated with Image J software (obtained from NIH). […] The directedness of motion was expressed as a function of cosine. It was calculated by defining movements in the X-plane towards the cathode (or mock-cathode) as negative. […] For quantification of long-term EF-exposed cells, the symmetry was expressed as a function of the distribution of cells around the explant. Total cell numbers in the cathode and anode facing quadrants were calculated. […]

Test [2] relates to association of p-PAK1 with TIAM1. As to the kind of experiment: Coimmunoprecipitation of p-PAK1 with TIAM1 in EF-exposed LGE explants. The test is classed as cell-based, rat. Conditions: DAPV. The source says: (§1) The methods for immunocytochemistry and coimmunoprecipitation have been described in detail in Ning et al., “Dual neuroprotective signaling mediated by downregulating two distinct phosphatase activities of PTEN,” J. Neurosci., 24, 4052-60, (2004); and Liu et al., “Ischemic insults direct glutamate receptor subunit 2-lacking AMPA receptors to synaptic sites,” J. Neurosci., 26, 5309-19 (2006), both of which are incorporated herein by reference. For immunocytochemical labeling, the guinea-pig anti-DCX (obtained from Santa Cruz Biotechnology, Santa Cruz, Calif.), mouse anti-nestin (obtained from Chemicon, Billerica, Mass.), rabbit anti-NR1 (obtained from Chemicon), and rabbit anti-NR2B (obtained from Novas Biologicals, Littleton, Colo.) primary antibodies were used. Secondary antibodies consisted of Alex Fluor 488 and 596 were purchased from Molecular Probes, Eugene, Oreg. Imaging was performed with a Zeiss LSM 510 META confocal microscope and image processing was performed with Image J software (obtained from NIH). For coimmunoprecipitation assay, rabbit anti-TIAM1 (obtained from Santa Cruz), rabbit anti-NR2B (obtained from Novus Biologicals), rabbit anti-phosphorylated PAK1 at serine 423 (obtained from Santa Cruz) and mouse anti-actin (obtained from Chemicon) were used. […]

The test system of test [3] is PAK1 phosphorylation. The experiment in a line: Immunoblot of PAK1 phosphorylation (serine 423) in EF-exposed explants. It counts as cell-based, rat. Conditions: DAPV; EF 250 mV/mm for 60 min.
From the text: as §1
In general terms: In western blotting, separated proteins are transferred to a membrane and probed.

For test [4], the target named is T1, NMDAR association with TIAM1 (Rattus norvegicus, UniProt Q00960).
T1 construct: from tissue; host or cells: rat (Wistar) E17-18 lateral ganglionic eminence explant cultures
T1 sequence (Q00960 27-1482, other chains not shown): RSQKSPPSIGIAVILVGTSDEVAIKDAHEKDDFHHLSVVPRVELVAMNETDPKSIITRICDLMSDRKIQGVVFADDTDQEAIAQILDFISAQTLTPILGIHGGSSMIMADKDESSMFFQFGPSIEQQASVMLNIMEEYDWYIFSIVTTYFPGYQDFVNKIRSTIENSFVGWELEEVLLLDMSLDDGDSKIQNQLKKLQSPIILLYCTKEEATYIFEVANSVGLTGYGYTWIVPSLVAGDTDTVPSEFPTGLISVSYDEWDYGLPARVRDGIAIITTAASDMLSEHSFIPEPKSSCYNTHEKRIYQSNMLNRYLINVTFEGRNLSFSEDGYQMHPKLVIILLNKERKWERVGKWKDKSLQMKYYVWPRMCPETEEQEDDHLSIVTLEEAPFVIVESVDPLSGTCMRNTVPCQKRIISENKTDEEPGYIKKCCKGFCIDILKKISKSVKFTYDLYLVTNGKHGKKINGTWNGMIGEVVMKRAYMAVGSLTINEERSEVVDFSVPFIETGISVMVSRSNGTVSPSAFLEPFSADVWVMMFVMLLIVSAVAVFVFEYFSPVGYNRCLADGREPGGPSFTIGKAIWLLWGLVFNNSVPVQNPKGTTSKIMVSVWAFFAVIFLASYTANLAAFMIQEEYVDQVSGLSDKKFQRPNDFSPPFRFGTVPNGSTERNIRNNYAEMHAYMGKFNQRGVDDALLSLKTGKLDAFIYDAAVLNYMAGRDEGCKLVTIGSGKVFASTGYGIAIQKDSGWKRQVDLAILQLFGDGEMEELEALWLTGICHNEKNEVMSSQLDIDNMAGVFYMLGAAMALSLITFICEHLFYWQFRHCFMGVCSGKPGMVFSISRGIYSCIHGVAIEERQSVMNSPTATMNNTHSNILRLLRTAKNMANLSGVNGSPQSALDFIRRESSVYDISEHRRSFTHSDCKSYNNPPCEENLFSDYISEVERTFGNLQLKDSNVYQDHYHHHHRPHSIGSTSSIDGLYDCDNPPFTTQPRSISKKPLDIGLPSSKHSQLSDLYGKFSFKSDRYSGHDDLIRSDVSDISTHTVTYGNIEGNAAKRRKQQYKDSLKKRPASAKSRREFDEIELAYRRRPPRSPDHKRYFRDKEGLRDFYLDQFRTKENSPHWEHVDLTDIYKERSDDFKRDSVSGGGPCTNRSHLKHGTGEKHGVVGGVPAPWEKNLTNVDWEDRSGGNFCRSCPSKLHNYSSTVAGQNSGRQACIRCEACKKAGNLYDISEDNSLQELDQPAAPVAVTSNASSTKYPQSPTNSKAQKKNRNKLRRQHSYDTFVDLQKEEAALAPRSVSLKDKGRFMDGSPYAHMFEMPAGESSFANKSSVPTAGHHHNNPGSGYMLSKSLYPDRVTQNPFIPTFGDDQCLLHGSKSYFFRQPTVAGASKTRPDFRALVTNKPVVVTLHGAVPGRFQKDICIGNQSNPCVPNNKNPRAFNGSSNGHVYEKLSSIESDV
As to the kind of experiment: Coimmunoprecipitation of NMDAR (NR2B) with TIAM1 in EF-exposed LGE explants. The test is classed as cell-based. Conditions: DAPV 10 μM, EF 250 mV/mm for 60 minutes. The source says: The methods for immunocytochemistry and coimmunoprecipitation have been described in detail in Ning et al., “Dual neuroprotective signaling mediated by downregulating two distinct phosphatase activities of PTEN,” J. Neurosci., 24, 4052-60, (2004); and Liu et al., “Ischemic insults direct glutamate receptor subunit 2-lacking AMPA receptors to synaptic sites,” J. Neurosci., 26, 5309-19 (2006), both of which are incorporated herein by reference. For immunocytochemical labeling, the guinea-pig anti-DCX (obtained from Santa Cruz Biotechnology, Santa Cruz, Calif.), mouse anti-nestin (obtained from Chemicon, Billerica, Mass.), rabbit anti-NR1 (obtained from Chemicon), and rabbit anti-NR2B (obtained from Novas Biologicals, Littleton, Colo.) primary antibodies were used. Secondary antibodies consisted of Alex Fluor 488 and 596 were purchased from Molecular Probes, Eugene, Oreg. Imaging was performed with a Zeiss LSM 510 META confocal microscope and image processing was performed with Image J software (obtained from NIH). For coimmunoprecipitation assay, rabbit anti-TIAM1 (obtained from Santa Cruz), rabbit anti-NR2B (obtained from Novus Biologicals), rabbit anti-phosphorylated PAK1 at serine 423 (obtained from Santa Cruz) and mouse anti-actin (obtained from Chemicon) were used.
Rearrangement of the actin cytoskeletal network is an essential process in neural migration. […]

Test [5] has as its system association between actin and TIAM1. As to the kind of experiment: Coimmunoprecipitation of actin with TIAM1 in EF-exposed explants. To be noted: DAPV. The test is classed as cell-based, rat.
From the text: as §1

Structures are written as SMILES. Entries after “also recorded” stand apart in the source; their conditions may differ.

In the case of `N[C@H](CCCP(=O)(O)O)C(=O)O` [DAPV], the “NSPC migration toward cathode on the cathode side of explants” value in test [1] is reported as “significantly inhibited; also recorded: significantly attenuated”. Besides, the “EF-enhanced association of p-PAK1 with TIAM1” value in test [2] is listed as “abolished”. In test [3], the “EF-mediated increase of PAK1 phosphorylation” value is “significantly attenuated; also recorded: blocked”. In addition, the “EF-induced increase of NMDAR (NR2B) association with TIAM1” value in test [4] was “inhibited; also recorded: suppressed”. In addition, the “EF-induced increase of association between actin and TIAM1” value in test [5] is “suppressed; also recorded: inhibited”.
